Patent US20230114728A1 (Venatorx Pharmaceuticals, Inc., priority 2019, published 2023)
Converted amounts (≈) assume the structure as drawn.

What was measured:
Test in all cases: Broth microdilution MIC in iron-depleted CAMHB (IDM)
Format in all cases: cell-based
[1] = test system: A. baumannii CDC-0045 producing TEM-1D, OXA-23, and OXA-69; conditions: Acinetobacter baumannii, read-out: Minimum Inhibitory Concentration, CDC-0045
P. aeruginosa ATCC 27853 = conditions: Pseudomonas aeruginosa, ATCC27853, read-out: Minimum Inhibitory Concentration, P. aeruginosa ATCC 27853
Procedure: (§1) Example IV: In Vitro Antibacterial Assays in Iron-Depleted Cation-Adjusted Mueller-Hinton Broth
(§2) To determine the ability of test compounds to inhibit the growth bacterial strains under conditions of iron-depletion, classic cell based broth microdilution minimum inhibitory concentration (MIC) assays were employed. MIC assays are performed according to CLSI methods except where otherwise noted (CLSI, 2018 and CLSI, 2019). The reference type strain E. coli ATCC 25922 was used to determine the ability of the PBP inhibitors to inhibit the growth of Enterobacteriaceae. Wild-type P. aeruginosa ATCC 27853, A. baumannii ATCC 17978 and A. baumannii ATCC 19606, along with the hyper-permeable P. aeruginosa ATCC 35151, an engineered efflux pump-compromised strain of P. aeruginosa (ΔmexAB-oprM), and an engineered efflux-pump compromised strain of A. baumannii IL123 (ABΔ3-ARAEcPore) were used to determine the ability of PBP inhibitors to penetrate the outer membrane of P. aeruginosa and A. baumannii and assess antibacterial activity against these important gram-negative organisms.
(§3) Briefly, cryo-preserved bacterial cultures of challenge strains are streaked for isolation on appropriate agar medium, in this case cation-adjusted Mueller Hinton agar. Following incubation to allow growth of the colonies, plates are sealed with parafilm and stored refrigerated for up to two weeks. For preparation of assay inoculum and to ensure low variability, at least 5 colonies are picked from the agar plates with an inoculating loop and aseptically transferred to a culture tube containing 3 mL of iron-depleted cation-adjusted Mueller Hinton broth (IDM)—see below for IDM preparation. The broth culture is grown for 3-5 hours at 37° C. with shaking at 200 rpm. Meanwhile, 2-fold serial dilutions of test compounds are conducted in a 96-well plate with a final volume of 75 μL per well at 2-fold the final desired concentration. After the dilution plates are set up the growing cultures are then diluted in a cuvette containing IDM and the optical density is measured at 600 nm. The inoculum is diluted such that 75 μL of this culture in IDM results in a starting bacterial concentration of 2-8×10^5 CFU/mL when added to the dilution plates. The plates are incubated for 16-20 hours for Enterobacteriaceae and Pseudomonas and 20-24 hours for Acinetobacter at 37° C. The MIC values are read visually as the lowest concentration well with no bacterial growth.
(§4) Method for Iron-Depleted Cation-Adjusted Mueller Hinton Broth (IDM) Preparation:
(§5) • Prepare cation-adjusted Mueller Hinton broth as per the manufacturer's recommendations and autoclave. • Add 100 g/L Chelex 100 resin, cover with foil and incubate with stirring for 2 hours • Remove Chelex 100 resin by filtration with 0.45 μm filter flask • Add the following back to the medium: • CaCl2 dihydrate: 82.5 mg/L • MgCl2 hexahydrate: 94.1 mg/L • ZnSO4: 10 μM • Adjust pH of medium to 7.3 with 5 N HCl • Sterilize using a 0.22 µm filter flask

P. aeruginosa ATCC 35151 = conditions: Pseudomonas aeruginosa, ATCC35151; iron-depleted MHB (IDM); hyper-permeable strain; read-out: Minimum Inhibitory Concentration, P. aeruginosa ATCC 35151
Procedure: as §1, §2, §3, §4, §5

[2] = test system: P. aeruginosa CDC-0095 producing OXA-50, and PAO; conditions: Pseudomonas aeruginosa, read-out: Minimum Inhibitory Concentration, P. aeruginosa CDC-0095
Procedure: as §1, §2, §3, §4, §5

P. aeruginosa CDC-0110 = conditions: Pseudomonas aeruginosa, CDC0110, read-out: Minimum Inhibitory Concentration, P. aeruginosa CDC-0110
Procedure: as §2, §3, §4, §5

Structure (SMILES)	MIC [1] [µg/mL]	MIC (P. aeruginosa ATCC 27853) [µg/mL]	MIC (P. aeruginosa ATCC 35151) [µg/mL]	MIC [2] [µg/mL]	MIC (P. aeruginosa CDC-0110) [µg/mL]
O=C(O)c1c(F)ccc2c1OB(O)[C@@H](NC(=O)[C@H](NC(=O)N1CCNC1=O)c1c(F)cc(O)c(O)c1Cl)C2 (single isomer, unassigned) [Example 34]	0.25 (≈ 0.451 µM)	0.5 to 1 (≈ 0.901 to 1.8 µM)	0.25 (≈ 0.451 µM)	32 to 64 (≈ 57.7 to 115 µM)	0.5 to 1 (≈ 0.901 to 1.8 µM)
CS(=O)(=O)N1CCN(C(=O)N[C@@H](C(=O)N[C@H]2Cc3ccc(F)c(C(=O)O)c3OB2O)c2c(F)cc(O)c(O)c2Cl)C1=O (single isomer, unassigned) [Example 35]	0.25 (≈ 0.395 µM)	0.5 to 1 (≈ 0.79 to 1.58 µM)	0.25 (≈ 0.395 µM)	32 to 64 (≈ 50.6 to 101 µM)	0.5 to 1 (≈ 0.79 to 1.58 µM)
NCCN1CCN(C(=O)N[C@@H](C(=O)N[C@H]2Cc3ccc(F)c(C(=O)O)c3OB2O)c2c(F)cc(O)c(O)c2F)C(=O)C1=O (single isomer, unassigned) [Example 40]	2 to 4 (≈ 3.28 to 6.57 µM)	2 to 4 (≈ 3.28 to 6.57 µM)	0.25 (≈ 0.41 µM)	2 to 4 (≈ 3.28 to 6.57 µM)	2 to 4 (≈ 3.28 to 6.57 µM)
NCCCN1CCN(C(=O)N[C@@H](C(=O)N[C@H]2Cc3ccc(F)c(C(=O)O)c3OB2O)c2c(F)cc(O)c(O)c2F)C(=O)C1=O (single isomer, unassigned) [Example 41]	0.5 to 1 (≈ 0.802 to 1.6 µM)	2 to 4 (≈ 3.21 to 6.42 µM)	0.25 (≈ 0.401 µM)	2 to 4 (≈ 3.21 to 6.42 µM)	2 to 4 (≈ 3.21 to 6.42 µM)
O=C(O)c1ccc(C(NC(=O)c2ccc(O)c(O)c2Cl)C(=O)N[C@H]2Cc3cccc(C(=O)O)c3OB2O)cc1F (stereo partly drawn) [Example 7, (3R)-3-(2-(4-carboxy-3-fluorophenyl)-2-(2-chloro-3,4-dihydroxybenzamido)acetamido)-2-hydroxy-3,4-dihydro-2H-benzo[e][1,2]oxaborinine-8-carboxylic acid]	32 to 64 (≈ 55.9 to 112 µM)	2 to 4 (≈ 3.49 to 6.98 µM)	0.25 (≈ 0.437 µM)	8 to 16 (≈ 14 to 27.9 µM)	2 to 4 (≈ 3.49 to 6.98 µM)
O=C(NC(C(=O)N[C@H]1Cc2ccc(F)c(C(=O)O)c2OB1O)c1ncc(O)cc1F)c1ccc(O)c(O)c1Cl (stereo partly drawn) [Example 8, (3R)-3-(2-(2-chloro-3,4-dihydroxybenzamido)-2-(3-fluoro-5-hydroxypyridin-2-yl)acetamido)-7-fluoro-2-hydroxy-3,4-dihydro-2H-benzo[e][1,2]oxaborinine-8-carboxylic acid]	32 to 64 (≈ 56.8 to 114 µM)	0.5 to 1 (≈ 0.887 to 1.77 µM)	0.25 (≈ 0.444 µM)	2 to 4 (≈ 3.55 to 7.1 µM)	0.5 to 1 (≈ 0.887 to 1.77 µM)
O=C(Nc1ccc(O)c(O)c1Cl)NC(C(=O)N[C@H]1Cc2ccc(F)c(C(=O)O)c2OB1O)c1ncc(O)cc1F (stereo partly drawn) [Example 9, (3R)-3-(2-(3-(2-chloro-3,4-dihydroxyphenyl)ureido)-2-(3-fluoro-5-hydroxypyridin-2-yl)acetamido)-7-fluoro-2-hydroxy-3,4-dihydro-2H-benzo[e][1,2]oxaborinine-8-carboxylic acid]	32 to 64 (≈ 55.3 to 111 µM)	8 to 16 (≈ 13.8 to 27.6 µM)	0.25 (≈ 0.432 µM)	32 to 64 (≈ 55.3 to 111 µM)	32 to 64 (≈ 55.3 to 111 µM)
O=C(NC(C(=O)N[C@H]1Cc2ccc(F)c(C(=O)O)c2OB1O)c1ncc(O)cc1F)c1c(F)cc(O)c(O)c1Cl (stereo partly drawn) [Example 10, (3R)-3-(2-(2-chloro-6-fluoro-3,4-dihydroxybenzamido)-2-(3-fluoro-5-hydroxypyridin-2-yl)acetamido)-7-fluoro-2-hydroxy-3,4-dihydro-2H-benzo[e][1,2]oxaborinine-8-carboxylic acid]	32 to 64 (≈ 55 to 110 µM)	0.5 to 1 (≈ 0.86 to 1.72 µM)	0.25 (≈ 0.43 µM)	2 to 4 (≈ 3.44 to 6.88 µM)	0.5 to 1 (≈ 0.86 to 1.72 µM)
CS(=O)(=O)N1CCN(C(=O)NC(C(=O)N[C@H]2Cc3ccc(F)c(C(=O)O)c3OB2O)c2ccc(O)c(O)c2Cl)C1=O (stereo partly drawn) [Example 23, (3R)-3-(2-(2-chloro-3,4-dihydroxyphenyl)-2-(3-(methylsulfonyl)-2-oxoimidazolidine-1-carboxamido)acetamido)-7-fluoro-2-hydroxy-3,4-dihydro-2H-benzo[e][1,2]oxaborinine-8-carboxylic acid]	0.5 to 1 (≈ 0.813 to 1.63 µM)	0.5 to 1 (≈ 0.813 to 1.63 µM)	0.25 (≈ 0.407 µM)	8 to 16 (≈ 13 to 26 µM)	2 to 4 (≈ 3.25 to 6.51 µM)
